Values belong to the molecule of their own block, whether it stands above or below them. Active and inactive are the calls of the source. No cut-off for these calls is given here. Where a SMILES comes first, the peptide text is derived from it. [ ]: non-standard residue; d: D form. The star is where a group is joined. Adenosine(5'-uronoyl) = Nc1ncnc2c1ncn2[C@@H]1O[C@H](C(=O)*)[C@@H](O)[C@H]1O; X1 = Nc1nccc(-c2ccc(C(=O)*)s2)n1; Ahx = NCCCCCC(=O)O
Legend:
[1] = molecular target: T1, Rho-associated protein kinase 2 (Homo sapiens, UniProt O75116); experiment: Displacement of fluorescent-ARC-1063 from His6-tagged recombinant human ROCK2 by luminescence intensity assay
Target sequence in this assay (O75116 whole entry): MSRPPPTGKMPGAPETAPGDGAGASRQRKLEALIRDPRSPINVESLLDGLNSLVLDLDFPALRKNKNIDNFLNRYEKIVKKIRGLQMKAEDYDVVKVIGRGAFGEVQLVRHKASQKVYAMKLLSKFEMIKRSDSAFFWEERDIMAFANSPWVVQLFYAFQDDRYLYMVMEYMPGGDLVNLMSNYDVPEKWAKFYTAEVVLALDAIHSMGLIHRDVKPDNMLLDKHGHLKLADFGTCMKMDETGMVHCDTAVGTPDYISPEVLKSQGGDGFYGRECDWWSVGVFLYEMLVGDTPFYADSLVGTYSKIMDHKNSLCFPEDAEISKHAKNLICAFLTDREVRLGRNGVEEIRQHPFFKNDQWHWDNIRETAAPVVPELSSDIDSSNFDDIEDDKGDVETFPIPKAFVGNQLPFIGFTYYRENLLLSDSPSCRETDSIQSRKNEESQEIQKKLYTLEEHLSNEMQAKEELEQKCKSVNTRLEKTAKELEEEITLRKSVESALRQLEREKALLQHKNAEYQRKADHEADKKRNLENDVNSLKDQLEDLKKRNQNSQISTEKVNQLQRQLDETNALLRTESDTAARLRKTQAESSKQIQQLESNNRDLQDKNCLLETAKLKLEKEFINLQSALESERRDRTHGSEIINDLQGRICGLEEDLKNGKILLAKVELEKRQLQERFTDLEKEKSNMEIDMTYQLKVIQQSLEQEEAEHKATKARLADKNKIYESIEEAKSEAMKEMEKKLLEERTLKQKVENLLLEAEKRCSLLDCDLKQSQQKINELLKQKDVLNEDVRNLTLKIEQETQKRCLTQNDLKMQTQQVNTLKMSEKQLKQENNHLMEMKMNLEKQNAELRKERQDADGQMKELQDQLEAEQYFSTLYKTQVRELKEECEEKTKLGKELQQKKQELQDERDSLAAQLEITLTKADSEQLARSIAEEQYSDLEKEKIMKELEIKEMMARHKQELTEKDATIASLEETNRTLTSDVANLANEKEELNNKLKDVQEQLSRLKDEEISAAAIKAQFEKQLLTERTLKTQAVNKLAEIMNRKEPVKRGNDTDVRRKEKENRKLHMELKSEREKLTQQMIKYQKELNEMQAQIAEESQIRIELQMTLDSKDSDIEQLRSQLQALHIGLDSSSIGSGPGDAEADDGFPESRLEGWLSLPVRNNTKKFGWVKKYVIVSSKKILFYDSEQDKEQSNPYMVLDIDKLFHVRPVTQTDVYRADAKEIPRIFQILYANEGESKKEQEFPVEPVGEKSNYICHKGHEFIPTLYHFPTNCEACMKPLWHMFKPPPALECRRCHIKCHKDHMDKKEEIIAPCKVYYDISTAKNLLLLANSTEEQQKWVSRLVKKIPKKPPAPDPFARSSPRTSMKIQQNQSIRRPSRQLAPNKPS

[2] = Displacement of fluorescent-ARC-1063 from recombinant bovine PKAc by luminescence intensity assay; parameters: species or system Bos taurus
[3] = Selectivity ratio of Kd for His6-tagged recombinant human ROCK2 to Kd for recombinant bovine PKAc
[4] = Displacement of fluorescent-ARC-583 from recombinant bovine PKAc by fluorescence anisotropy assay; parameters: species or system Bos taurus
[5] = molecular target: T1, Rho-associated protein kinase 2; experiment: Displacement of fluorescent-ARC-1042 from His6-tagged recombinant human ROCK2 by fluorescence anisotropy assay
Target sequence in this assay (O75116 whole entry): as above

[6] = molecular target: RAC-gamma serine/threonine-protein kinase (Homo sapiens, UniProt Q9Y243, S472D); experiment: Displacement of fluorescent-ARC-583/ARC-1042/ARC-1059 from His6-tagged recombinant human AKT3 S472D mutant by fluorescence anisotropy assay
[7] = molecular target: Ribosomal protein S6 kinase alpha-5 (Homo sapiens, UniProt O75582); experiment: Displacement of fluorescent-ARC-583/ARC-1042/ARC-1059 from His6-tagged recombinant human MSK1 by fluorescence anisotropy assay
[8] = molecular target: Ribosomal protein S6 kinase beta-1 (Homo sapiens, UniProt P23443); experiment: Displacement of fluorescent-ARC-583/ARC-1042/ARC-1059 from His6-tagged recombinant human p70S6K by fluorescence anisotropy assay
[9] = molecular target: T2, cGMP-dependent protein kinase 1 (Homo sapiens, UniProt Q13976); experiment: Displacement of fluorescent-ARC-583/ARC-1042/ARC-1059 from His6-tagged recombinant human PKG1alpha by fluorescence anisotropy assay
T2 sequence (Q13976 whole entry): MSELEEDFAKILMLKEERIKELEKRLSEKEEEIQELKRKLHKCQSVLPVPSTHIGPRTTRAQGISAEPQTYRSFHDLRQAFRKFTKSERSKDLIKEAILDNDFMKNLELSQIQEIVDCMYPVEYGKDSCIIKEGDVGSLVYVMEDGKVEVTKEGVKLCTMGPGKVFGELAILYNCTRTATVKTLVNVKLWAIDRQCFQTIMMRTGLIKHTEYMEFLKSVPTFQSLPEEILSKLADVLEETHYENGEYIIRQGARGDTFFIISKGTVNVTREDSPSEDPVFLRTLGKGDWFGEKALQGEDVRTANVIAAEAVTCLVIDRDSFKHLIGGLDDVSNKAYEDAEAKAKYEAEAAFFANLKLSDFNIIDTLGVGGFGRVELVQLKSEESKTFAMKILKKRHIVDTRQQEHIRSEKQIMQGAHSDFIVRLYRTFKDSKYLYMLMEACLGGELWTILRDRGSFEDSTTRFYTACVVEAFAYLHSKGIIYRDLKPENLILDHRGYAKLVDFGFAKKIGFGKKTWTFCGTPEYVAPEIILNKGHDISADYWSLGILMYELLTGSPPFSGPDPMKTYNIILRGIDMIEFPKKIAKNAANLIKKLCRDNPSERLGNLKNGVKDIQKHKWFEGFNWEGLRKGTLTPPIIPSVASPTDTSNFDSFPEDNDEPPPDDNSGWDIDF

[10] = molecular target: T1, Rho-associated protein kinase 2; experiment: Displacement of fluorescent-ARC-583/ARC-1042/ARC-1059 from His6-tagged recombinant human ROCK2 by fluorescence anisotropy assay
Target sequence in this assay (O75116 whole entry): as the sequence (O75116 whole entry) above

[11] = Inhibition of catalytic subunit of PKA
[12] = Inhibition of PKC
[13] = Displacement of fluorescent-ARC-583/ARC-1042/ARC-1059 from recombinant bovine PKAc by fluorescence anisotropy assay; parameters: species or system Bos taurus
[14] = Displacement of fluorescent-ARC-583/ARC-1042/ARC-1059 from His6-tagged recombinant human PKCeta S472D mutant by fluorescence anisotropy assay
Bos taurus = organism: Bos taurus; experiment: Displacement of fluorescent-ARC-1063 from recombinant bovine PKAc by fluorescence anisotropy assay
[15] = molecular target: T1, Rho-associated protein kinase 2; experiment: Displacement of fluorescent-ARC-1063 from His6-tagged recombinant human ROCK2 by fluorescence anisotropy assay
Target sequence in this assay (O75116 whole entry, looked up): as the sequence (O75116 whole entry) above

[16] = Binding affinity to PKAc
[17] = Binding affinity to PKG

Chain of Ribosomal protein S6 kinase alpha-5 (O75582 whole entry): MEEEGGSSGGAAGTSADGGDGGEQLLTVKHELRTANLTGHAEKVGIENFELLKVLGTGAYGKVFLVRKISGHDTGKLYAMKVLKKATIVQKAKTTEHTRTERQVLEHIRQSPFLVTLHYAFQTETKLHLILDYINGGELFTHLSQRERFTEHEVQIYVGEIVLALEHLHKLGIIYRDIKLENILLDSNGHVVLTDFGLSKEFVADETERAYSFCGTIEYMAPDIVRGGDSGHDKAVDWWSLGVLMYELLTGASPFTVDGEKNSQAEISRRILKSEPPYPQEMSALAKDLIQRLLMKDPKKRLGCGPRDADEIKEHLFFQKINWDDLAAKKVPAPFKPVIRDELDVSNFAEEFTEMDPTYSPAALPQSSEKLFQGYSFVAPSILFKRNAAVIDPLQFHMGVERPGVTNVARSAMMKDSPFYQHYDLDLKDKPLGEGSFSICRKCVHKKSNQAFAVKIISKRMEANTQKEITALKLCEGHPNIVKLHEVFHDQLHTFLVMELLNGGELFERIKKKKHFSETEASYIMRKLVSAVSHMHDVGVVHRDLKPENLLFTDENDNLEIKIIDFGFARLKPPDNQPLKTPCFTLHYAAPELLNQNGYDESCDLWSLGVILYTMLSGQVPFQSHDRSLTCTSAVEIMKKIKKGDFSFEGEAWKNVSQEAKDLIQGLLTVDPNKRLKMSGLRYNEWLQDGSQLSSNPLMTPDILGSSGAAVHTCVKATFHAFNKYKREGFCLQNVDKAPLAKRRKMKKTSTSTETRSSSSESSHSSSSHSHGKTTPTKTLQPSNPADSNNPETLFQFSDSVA
Chain of RAC-gamma serine/threonine-protein kinase (Q9Y243 2-479 S472D limits assumed): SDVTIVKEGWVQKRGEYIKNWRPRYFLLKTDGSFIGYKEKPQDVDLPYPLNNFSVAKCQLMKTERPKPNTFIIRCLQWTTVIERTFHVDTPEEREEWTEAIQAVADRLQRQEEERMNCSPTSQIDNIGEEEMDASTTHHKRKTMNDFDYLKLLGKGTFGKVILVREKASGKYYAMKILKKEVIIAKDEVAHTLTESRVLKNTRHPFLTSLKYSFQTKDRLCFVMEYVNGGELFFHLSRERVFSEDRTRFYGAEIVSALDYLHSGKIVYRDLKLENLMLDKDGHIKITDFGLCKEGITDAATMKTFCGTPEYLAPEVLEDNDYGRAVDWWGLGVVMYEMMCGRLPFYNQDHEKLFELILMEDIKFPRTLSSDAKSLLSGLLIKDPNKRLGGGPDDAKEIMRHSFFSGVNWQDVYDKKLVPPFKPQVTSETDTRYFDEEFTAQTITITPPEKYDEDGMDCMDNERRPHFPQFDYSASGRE
Chain of Ribosomal protein S6 kinase beta-1 (P23443 whole entry): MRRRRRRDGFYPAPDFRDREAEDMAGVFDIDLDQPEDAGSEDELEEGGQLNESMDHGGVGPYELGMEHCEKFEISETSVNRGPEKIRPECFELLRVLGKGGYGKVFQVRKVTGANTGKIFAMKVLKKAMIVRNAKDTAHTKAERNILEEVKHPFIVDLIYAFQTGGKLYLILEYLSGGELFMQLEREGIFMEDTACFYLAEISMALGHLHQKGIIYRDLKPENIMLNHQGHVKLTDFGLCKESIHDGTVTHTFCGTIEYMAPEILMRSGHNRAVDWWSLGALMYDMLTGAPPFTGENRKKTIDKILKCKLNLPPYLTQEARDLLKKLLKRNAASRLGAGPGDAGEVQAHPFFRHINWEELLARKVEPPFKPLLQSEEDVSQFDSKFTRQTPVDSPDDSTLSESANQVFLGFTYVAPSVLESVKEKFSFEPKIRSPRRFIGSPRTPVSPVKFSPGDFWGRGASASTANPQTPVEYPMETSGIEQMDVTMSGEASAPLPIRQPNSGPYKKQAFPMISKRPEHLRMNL

- IC50 [1]: 2.75 nM
- Kd [1]: 0.0056 nM
SMILES: NCCCC[C@@H](NC(=O)CCCCCNC(=O)c1ccc(-c2ccnc(N)n2)s1)C(=O)NCCCCCC(=O)N[C@H](CCCN=C(N)N)C(=O)N[C@H](CCCN=C(N)N)C(=O)N[C@H](CCCN=C(N)N)C(=O)N[C@H](CCCN=C(N)N)C(=O)N[C@H](CCCN=C(N)N)C(=O)N[C@H](CCCN=C(N)N)C(N)=O ({X1-Ahx}-[dK][Ahx][dR][dR][dR][dR][dR][dR]-NH2)

- pIC50 [4]: > 4.5
- IC50 [5]: 16200 nM
- Kd [5]: 690 nM
SMILES: N=C(N)NCCC[C@@H](NC(=O)[C@@H](CCCNC(=N)N)NC(=O)CCCCCNC(=O)[C@H](CCCCN)NC(=O)CNCC(=O)NCCNS(=O)(=O)c1cccc2cnccc12)C(N)=O

- Kd [2]: 0.056 nM
- pIC50 [2]: 6.78
- Selectivity Index [3]: 10
SMILES: N=C(N)NCCC[C@@H](NC(=O)[C@@H](CCCNC(=N)N)NC(=O)[C@@H](CCCNC(=N)N)NC(=O)[C@@H](CCCNC(=N)N)NC(=O)[C@@H](CCCNC(=N)N)NC(=O)[C@@H](CCCNC(=N)N)NC(=O)CCCCCNC(=O)[C@@H](CCCCN)NC(=O)CCCCCNC(=O)c1ccc(-c2ccnc(N)n2)s1)C(N)=O ({X1-Ahx}-[dK][Ahx][dR][dR][dR][dR][dR][dR]-NH2)

- IC50 [11]: 3 nM
- IC50 [12]: 300 nM
SMILES: N=C(N)NCCC[C@H](NC(=O)[C@H](CCCNC(=N)N)NC(=O)[C@H](CCCNC(=N)N)NC(=O)[C@H](CCCNC(=N)N)NC(=O)[C@H](CCCNC(=N)N)NC(=O)[C@H](CCCNC(=N)N)NC(=O)[C@H](CO)NC(=O)CCNCCNS(=O)(=O)c1cccc2cnccc12)C(N)=O

- Kd [4]: 130 nM
- pIC50 [4]: 6.07
- IC50 [5]: 34.7 nM
- Kd [5]: 1.5 nM
SMILES: N=C(N)NCCC[C@@H](NC(=O)[C@@H](CCCNC(=N)N)NC(=O)[C@@H](CCCNC(=N)N)NC(=O)[C@@H](CCCNC(=N)N)NC(=O)[C@@H](CCCNC(=N)N)NC(=O)[C@@H](CCCNC(=N)N)NC(=O)CCCCCNC(=O)[C@@H](CCCCN)NC(=O)CNCC(=O)NCCNS(=O)(=O)c1cccc2cnccc12)C(N)=O

- Kd [13]: 83 nM
- pIC50 [13]: 6.16
- pIC50 [14]: > 5
- Kd [2]: 25 nM
- pIC50 [2]: 4.12
- Selectivity Index [3]: 0.56
SMILES: N=C(N)NCCC[C@@H](NC(=O)[C@@H](CCCNC(=N)N)NC(=O)CCCCCNC(=O)[C@@H](CCCCN)NC(=O)CCCCCCCN1CCCN(S(=O)(=O)c2cccc3cnccc23)CC1)C(N)=O

- Kd [4]: 0.53 nM
- pIC50 [4]: 8.26
- IC50 [5]: 2.45 nM
- Kd [5]: < 0.5 nM
- IC50 [6]: 72.4 nM
- Kd [6]: 55 nM
- IC50 [7]: 81.3 nM
- Kd [7]: 26 nM
- IC50 [8]: 6.46 nM
- Kd [8]: < 1 nM
- Kd [13]: < 1 nM
- pIC50 [13]: 8.26
- Kd [14]: 980 nM
- pIC50 [14]: 5.76
- IC50 [9]: 41.7 nM
- Kd [9]: 13 nM
- IC50 [10]: 2.45 nM
- Kd [10]: < 0.5 nM
SMILES: N=C(N)NCCC[C@@H](NC(=O)[C@@H](CCCNC(=N)N)NC(=O)[C@@H](CCCNC(=N)N)NC(=O)[C@@H](CCCNC(=N)N)NC(=O)[C@@H](CCCNC(=N)N)NC(=O)[C@@H](CCCNC(=N)N)NC(=O)CCCCCNCCNS(=O)(=O)c1cccc2cnccc12)C(N)=O

- Kd [4]: 24 nM
- pIC50 [4]: 6.79
- IC50 [5]: 17.8 nM
- Kd [5]: 0.7 nM
SMILES: N=C(N)NCCC[C@@H](NC(=O)[C@@H](CCCNC(=N)N)NC(=O)[C@@H](CCCNC(=N)N)NC(=O)[C@@H](CCCNC(=N)N)NC(=O)[C@@H](CCCNC(=N)N)NC(=O)[C@@H](CCCNC(=N)N)NC(=O)CCCCCNC(=O)[C@@H](CCCCN)NC(=O)CCNC(=O)CNCC(=O)NCCNS(=O)(=O)c1cccc2cnccc12)C(N)=O

- inhibition (Bos taurus): Active
- inhibition [15]: Active
- Kd [2]: 3.3 nM
- pIC50 [2]: 5.01
- IC50 [1]: 10.2 nM
- Kd [1]: 0.02 nM
- Selectivity Index [3]: 165
SMILES: N=C(N)NCCC[C@@H](NC(=O)[C@@H](CCCNC(=N)N)NC(=O)[C@@H](CCCNC(=N)N)NC(=O)[C@@H](CCCNC(=N)N)NC(=O)[C@@H](CCCNC(=N)N)NC(=O)[C@@H](CCCNC(=N)N)NC(=O)CCCCCNC(=O)[C@@H](CCCCN)NC(=O)CCCCCCCN1CCCN(S(=O)(=O)c2cccc3cnccc23)CC1)C(N)=O

- pIC50 [5]: > 4.5
SMILES: N=C(N)NCCC[C@@H](NC(=O)[C@@H](CCCNC(=N)N)NC(=O)CNCC(=O)NCCNS(=O)(=O)c1cccc2cnccc12)C(N)=O

- Kd [4]: 2500 nM
- pIC50 [4]: 4.78
- pIC50 [5]: > 4.5
SMILES: N=C(N)NCCC[C@@H](NC(=O)[C@@H](CCCNC(=N)N)NC(=O)CCCCCNC(=O)[C@@H](CCCCN)NC(=O)CNCC(=O)NCCNS(=O)(=O)c1cccc2cnccc12)C(N)=O

Second part, the molecule before the results:

SMILES: O=S(=O)(NCCNC/C=C/c1ccc(Br)cc1)c1cccc2cnccc12
- Kd [2]: 17 nM
- pIC50 [2]: 4.3

SMILES: N=C(N)NCCC[C@@H](NC(=O)[C@@H](CCCNC(=N)N)NC(=O)[C@@H](CCCNC(=N)N)NC(=O)[C@@H](CCCNC(=N)N)NC(=O)[C@@H](CCCNC(=N)N)NC(=O)[C@@H](CCCNC(=N)N)NC(=O)CCCCCNC(=O)[C@@H](CCCCN)NC(=O)CCCCCNC(=O)[C@H]1O[C@@H](n2cnc3c(N)ncnc32)[C@H](O)[C@@H]1O)C(N)=O ({Adenosine(5'-uronoyl)-Ahx}-[dK][Ahx][dR][dR][dR][dR][dR][dR]-NH2)
- Kd [2]: 0.26 nM
- pIC50 [2]: 6.12
- IC50 [1]: 10.5 nM
- Kd [1]: 0.021 nM
- Selectivity Index [3]: 12

SMILES: O=S(=O)(c1cccc2cnccc12)N1CCCNCC1 [FASUDIL]
- Kd [2]: 420 nM
- pIC50 [2]: 4.26

SMILES: N=C(N)NCCC[C@@H](NC(=O)[C@@H](CCCNC(=N)N)NC(=O)CCCCCNC(=O)[C@@H](CCCCN)NC(=O)CCCCCNC(=O)[C@H]1O[C@@H](n2cnc3c(N)ncnc32)[C@H](O)[C@@H]1O)C(N)=O
- Kd [4]: 8.9 nM
- pIC50 [4]: 7.22
- Kd [2]: 4.5 nM
- pIC50 [2]: 4.87
- Selectivity Index [3]: 0.7

SMILES: NCCCC[C@@H](NC(=O)CCCCCCCN1CCCN(S(=O)(=O)c2cccc3cnccc23)CC1)C(=O)NCCCCCC(=O)N[C@H](CCCN=C(N)N)C(=O)N[C@H](CCCN=C(N)N)C(N)=O
- IC50 [6]: 9120 nM
- Kd [6]: 7100 nM
- IC50 [7]: 4570 nM
- Kd [7]: 1600 nM
- IC50 [8]: 3310 nM
- Kd [8]: 860 nM
- IC50 [9]: 1860 nM
- Kd [9]: 630 nM
- IC50 [10]: 631 nM
- Kd [10]: 27 nM
- IC50 [1]: 6760 nM
- Kd [1]: 45 nM

SMILES: N=C(N)NCCC[C@@H](NC(=O)[C@@H](CCCNC(=N)N)NC(=O)[C@@H](CCCNC(=N)N)NC(=O)[C@@H](CCCNC(=N)N)NC(=O)[C@@H](CCCNC(=N)N)NC(=O)[C@@H](CCCNC(=N)N)NC(=O)CCCCCNC(=O)[C@H]1O[C@@H](n2cnc3c(N)ncnc32)[C@H](O)[C@@H]1O)C(N)=O
- Kd [2]: 0.25 nM
- pIC50 [2]: 6.12

SMILES: NCCNS(=O)(=O)c1cccc2cnccc12
- Ki [16]: 1900 nM
- Ki [17]: 800 nM

SMILES: NCCCC[C@@H](NC(=O)CCCCCNC(=O)[C@H]1O[C@@H](n2cnc3c(N)ncnc32)[C@H](O)[C@@H]1O)C(=O)NCCCCCC(=O)N[C@H](CCCN=C(N)N)C(=O)N[C@H](CCCN=C(N)N)C(N)=O
- IC50 [5]: 162 nM
- Kd [5]: 7 nM
- IC50 [1]: 977 nM
- Kd [1]: 6.4 nM

SMILES: N=C(N)NCCC[C@@H](NC(=O)[C@@H](CCCNC(=N)N)NC(=O)[C@@H](CCCNC(=N)N)NC(=O)[C@@H](CCCNC(=N)N)NC(=O)[C@@H](CCCNC(=N)N)NC(=O)[C@@H](CCCNC(=N)N)NC(=O)CNCC(=O)NCCNS(=O)(=O)c1cccc2cnccc12)C(N)=O
- Kd [4]: 120 nM
- pIC50 [4]: 6.1
- IC50 [5]: 151 nM
- Kd [5]: 6.4 nM
